Results on six molecules are retold here after article PMC10869804 (Scientific Reports, 2024).

A word on the Kd: it is a measure of binding affinity in units of concentration. A low value points to a tighter complex. As a reminder, the stoichiometry N is a count of units in the complex or per binding partner.

Experiment [1] addresses fluorescent designed Orf63 binding peptide FAM-Ahx-…. In words: fluorescence polarisation; 10 nM fluorescent peptide with varying concentrations of Orf63 (per protomer) in PBS pH 7.4; 1:1 binding function, each peptide assumed to bind each protomer independently.
Experiment [2] deals with 6xHis-Flag affinity tagged Orf63 from lambda bacteriophage (phage λ). Briefly: SEC-MALS; 2 mg/mL Orf63; 10 mM Tris-HCl, 0.15 M NaCl, pH 8.0; SEC300A column at 0.2 mL/min. A general note: In gel filtration, larger molecules generally elute earlier.
The test system of the next experiment is 15N-Orf63 dimer. Briefly: 15N-HSQC mixing experiment with ubiquitin fusion proteins. The format is binding, lambda bacteriophage. The following applies: 2:1 ubiquitin fusion to 15N-Orf63 dimer, 5 mM Tris-Cl pH 7.4, 50 mM NaCl. The protocol: Amino acid substitution mutants were prepared using the Q5 mutagenesis method (New England Biolabs) with oligonucleotides from IDT. […] At an A600 of 0.8, expression was induced by the addition of 1 mM isopropyl thiogalactoside (IPTG), and the culture was grown for 3 h further before harvesting. Detailed information regarding the purification of this fragment by nickel affinity and gel filtration chromatography has been published previously. For NMR spectroscopy, a uniformly ^13C, ^15N isotopically labelled protein sample was made from a 1 L culture containing M9 minimal media salts supplemented with 3 g of ^13C-glucose (Sigma-Aldrich), 1 g of ^15N ammonium chloride (Sigma-Aldrich) and 1 g of ^13C,^15N Celtone algal extract (Cambridge Isotopes). Natural abundance Orf63 proteins were prepared using a similar protocol except cultures were grown in LB media. Protein concentrations were estimated by UV absorbance at 280 nm. […]
design ubiquitin […]
control ubiquitin […]
(a) A mixing experiment was performed with 15N-Orf63 and a Ubiquitin-fusion protein with a C-terminal extension corresponding to a designed peptide, or an unrelated peptide control. The mixing ratio was 2:1 (Ubiquitin fusion […]
(b,c) 15N-HSQC spectra of 15N-Orf63
(blue) and 15N-Orf63 mixed with a Ubiquitin fusion protein. Asterisks denote peaks that were […]

The test system of a further experiment is Orf63. In words: 1H,15N-HSQC comparison of Orf63-linker-peptide hybrid protein with Orf63. The class given is binding, lambda bacteriophage. The settings on record: 0.15 mM 15N-labeled 6xHis-Flag-Orf63-linker-peptide vs 0.15 mM 15N-labeled 6xHis-Flag-Orf63.
The test system of another experiment is 15N-Orf63. In words: 15N-HSQC titration / chemical shift perturbation (CSP) mapping of peptide binding. Also noted: species or system lambda bacteriophage. How it is done:
(a) ^1H-^15N chemical shift perturbations (CSPs) measured between ^15N-Orf63 free, and in complex with a unlabelled designed peptide. Blue shading highlights a CSP > 0.05.
A titration was performed by acquiring a series of ^15N-HSQC spectra of 0.48 mM ^15N-Orf63 (monomeric concentration) with 0.12, 0.24, 0.36, 0.48, and 0.60 mM peptide ([…]) manufactured by GenScript (Piscataway, NJ) in phosphate buffered saline pH 7.4. Assignments of peptide-bound ^15N-Orf63, particularly through two helical regions, were made by walking through HN-HN correlations in a 3D 15N-NOESY spectrum.
Most resonances during the […]
throughout the two a-helical regions, was confirmed by an HN-HN walk through a 3D 15N-NOESY spectrum. Unassigned resonances N-terminal helix a1 and C-terminal to helix a2 are likely unstructured due to the absence of i,i+3, i,i+4, and HN-HN NOEs. The residue numbering follows the PDB file 8DSB and the expressed protein with N-terminal affinity […]
(1 picture or pasted object on this page, not shown here)

In experiment [3] the test system is lysogenic or lytic developmental outcome of phage λ infection. The settings on record: period to new viral progeny, bacterial survivors, conversion to lysogens; ref [8],[11]; cited from earlier work.

In experiment [1], “6xHis-Flag affinity tagged Orf63 from lambda bacteriophage (natural protein)” registered a Kd of 3.1 µM. Besides, in experiment [2], the stoichiometry N is 2.
Take “DTKELILAIARKVKEMIKNS [Ubiquitin fusion protein]”: the figures for the “line broadening / chemical shift changes” value in the experiment on 15N-Orf63 dimer and with 15N-Orf63 dimer (listed as design) were “significant line broadening suggesting binding was occurring” and “severely line broadened”, respectively.
In the case of DTKELILAIARKVKEMIKNS [hybrid protein], in the experiment with Orf63, the “spectrum of hybrid protein relative to Orf63” value is recorded as “resembled Orf63 with additional peaks from the helical ligand along with a set of chemical shift changes”.
Consider “DTKELILAIARKVKEMIKNS [synthetic peptide]”, for which the “saturation of the complex” value in the experiment with 15N-Orf63 (0.48 mM 15N-Orf63 (monomeric), 0.12-0.60 mM peptide, PBS pH 7.4, between 1:1 and 1.2:1 peptide:protomer ratio) is “the complex was deemed to be saturated with peptide ligand”. Moreover, the “exchange regime of CSPs, majority of resonances” value in the experiment with 15N-Orf63 (0.48 mM 15N-Orf63 (monomeric), titrated with peptide, PBS pH 7.4) is “fast exchange”. The “exchange regime of CSPs, minority of resonances in helix α2 from S45 onwards” value in the experiment on 15N-Orf63 (0.48 mM 15N-Orf63 (monomeric), titrated with peptide, PBS pH 7.4, largest measured CSPs) is reported as “slow exchange”. Besides, the “observed interaction surface (CSPs mapped on the structure)” value in the experiment with 15N-Orf63 (0.48 mM 15N-Orf63, PBS pH 7.4) is “consistent with the predicted interaction surface of the model”.
As for MAIAHAATEYVFADFVLK [reference compound], the “line broadening / chemical shift changes” value with 15N-Orf63 dimer is given as “no chemical shift or line broadening changes”.

B1: Ea22: protein encoded between the exo and xis genes of phage λ (protein, UniProt P03756 1-182, looked up)
Protein ea22: MSEINSQALREAAEQAMHDDWGFDADLFHELVTPSIVLELLDERERNQQYIKRRDQENEDIALTVGKLRVELETAKSKLNEQREYYEGVISDGSKRIAKLESNEVREDGNQFLVVRHPGKTPVIKHCTGDLEEFLRQLIEQDPLVTIDIITHRYYGVGGQWVQDAGEYLHMMSDAGIRIKGE
Consider B1, for which the lytic/lysogenic tendency result in experiment [3] is recorded as “pro-lysogenic”.
